Tests used:
[1] = molecular target: T1, PschSOD (recombinant chloroplastic CuZn-SOD) (Lathyrus oleraceus, UniProt P11964); assay: pyrogallol autoxidation SOD assay, residual activity; format: biochemical; conditions: superoxide from pyrogallol autoxidation; no constant
T1 construct: gene SODCP; mature form without chloroplast transit peptide (forward primer encodes MAAKKAVA), pET-28a His-tag kept, E. coli BL21 (DE3), Cu/Zn supplemented, ~18 kDa subunit, homodimer 36-38 kDa
T1 sequence (P11964 49-202): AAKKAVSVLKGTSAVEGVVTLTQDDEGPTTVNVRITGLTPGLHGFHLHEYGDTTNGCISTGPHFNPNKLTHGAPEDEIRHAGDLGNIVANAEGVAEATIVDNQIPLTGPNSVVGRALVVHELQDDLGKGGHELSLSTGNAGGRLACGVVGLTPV

[2] = molecular target: the molecule itself; assay: SEC; analytical gel filtration on a Bio-Sil 250 column, 5 mM K-PO4 pH 7.2 with 150 mM NaCl, calibrated with standard proteins; native mass compared with subunit mass on 15% SDS-PAGE

[O]O [O2^∙−, superoxide anion]
pyrogallol autoxidation SOD assay, residual activity [1]: Superoxide dismutase specific activity of PschSOD, assayed by pyrogallol method

B1: Pisum sativum chloroplastic CuZn-superoxide dismutase (PschSOD), recombinant, without chloroplast transit peptide (enzyme, Pisum sativum (pea), UniProt P11964 49-202, looked up)
chain: T1 sequence (P11964 49-202)
notes: the forward primer (NdeI, [residues removed]) encodes M-AAKKAVA, the reverse primer ends at ...GLTPV and the stop codon; Cloned NdeI/BamHI into pET-28a; One Cu and one Zn per subunit (about 1.84 Cu and 1.6 Zn per dimer); also called Pisum sativum SOD II; pea chloroplastic SOD; source: E. coli BL21 (DE3), pET-28a, purified (Ni-NTA, desalting, buffer exchange, dialysis)
stoichiometry N [2]: 2

Reference: paper PMC4333176, “Heterologous expression and biochemical characterization of a highly active and stable chloroplastic CuZn-superoxide dismutase from Pisum sativum” (BMC Biotechnology, 2015)
